Data on one compound can be found in patent US10137079B2, “Transdermal composition for treating pain” (priority 2014, dated 2018).

The test system of data set [1] is skin. Particulars: in vivo. The text has this: Menthol can optionally be added to overcome the burning sensation caused by the capsaicin. […] 13, 2012 has reported that skin can burn with menthol concentrations above 3% (http://www.fda.gov/Drugs/DrugSafety/ucm318858.htm). Thus, in one embodiment, the concentration of menthol in the ethosome compositions is less than about 3% by weight. In another embodiment, the concentration of menthol in the ethosome compositions is about 2% by weight.

Data set [2] has as its system skin. Particulars: FDA Safety Announcement Sep. 13, 2012; cited from earlier work.

As for `CC1CCC(C(C)C)C(O)C1` (centres unmarked) [Menthol], in data set [1], the burning sensation result is given as “can cause a burning sensation on its own”. In addition, the “menthol concentrations at which skin can burn” value in data set [2] is listed as “above 3%”.
